# In PubChem BioAssay (NCI):
#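 Briefly, cells in 96-well plates were exposed to five compound concentrations for 48 h, and endpoints were estimated by linear interpolation. TGI marks complete inhibition of growth.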
# Columns and labels:
# Assay in all cases: NCI-60 cell line screen, 48 h
# MDA-MB-435 = test system: MDA-MB-435
# HT29 colon = test system: HT29 colon
# SK-MEL-28 melanoma = test system: SK-MEL-28 melanoma
# A498 renal = test system: A498 renal
# MDA-N = test system: MDA-N
# SF-539 CNS = test system: SF-539 CNS
# KM12 colon = test system: KM12 colon
# SF-268 CNS = test system: SF-268 CNS
# TK-10 renal = test system: TK-10 renal
# UACC-62 melanoma = test system: UACC-62 melanoma
# ACHN renal = test system: ACHN renal
# IGROV1 ovarian = test system: IGROV1 ovarian
# HOP-92 NSCLC = test system: HOP-92 NSCLC
# SW-620 colon = test system: SW-620 colon
# NCI-H460 lung = test system: NCI-H460 lung
# EKVX NSCLC = test system: EKVX NSCLC
# OVCAR-4 ovarian = test system: OVCAR-4 ovarian
# NCI/ADR-RES ovarian = test system: NCI/ADR-RES ovarian
# SF-295 CNS = test system: SF-295 CNS
# HS 578T breast = test system: HS 578T breast
# MALME-3M melanoma = test system: MALME-3M melanoma
# UO-31 renal = test system: UO-31 renal
# NCI-H23 lung = test system: NCI-H23 lung
# T-47D breast = test system: T-47D breast
# U251 CNS = test system: U251 CNS
# NCI-H226 lung = test system: NCI-H226 lung
# HCT-116 colon = test system: HCT-116 colon
# PC-3 prostate = test system: PC-3 prostate
# SK-MEL-5 melanoma = test system: SK-MEL-5 melanoma
# OVCAR-3 ovarian = test system: OVCAR-3 ovarian
# HCC-2998 colon = test system: HCC-2998 colon
# DU-145 prostate = test system: DU-145 prostate
# A549 NSCLC = test system: A549 NSCLC
# CAKI-1 renal = test system: CAKI-1 renal
# MOLT-4 leukemia = test system: MOLT-4 leukemia
# K-562 leukemia = test system: K-562 leukemia
# MDA-MB-231 breast = test system: MDA-MB-231 breast
# RXF 393 renal = test system: RXF 393 renal
# M14 melanoma = test system: M14 melanoma
# SR leukemia = test system: SR leukemia
# LOX IMVI melanoma = test system: LOX IMVI melanoma
# RPMI-8226 leukemia = test system: RPMI-8226 leukemia
# HOP-62 NSCLC = test system: HOP-62 NSCLC
# SN12C renal = test system: SN12C renal
# SK-OV-3 ovarian = test system: SK-OV-3 ovarian
# HL-60(TB) leukemia = test system: HL-60(TB) leukemia
# SK-MEL-2 melanoma = test system: SK-MEL-2 melanoma
# OVCAR-5 ovarian = test system: OVCAR-5 ovarian
# COLO 205 colon = test system: COLO 205 colon
# NCI-H522 lung = test system: NCI-H522 lung
# SNB-75 CNS = test system: SNB-75 CNS
# SNB-19 CNS = test system: SNB-19 CNS
# 786-0 renal = test system: 786-0 renal
# CCRF-CEM leukemia = test system: CCRF-CEM leukemia
# HCT-15 colon = test system: HCT-15 colon
# UACC-257 melanoma = test system: UACC-257 melanoma
# BT-549 breast = test system: BT-549 breast
# OVCAR-8 ovarian = test system: OVCAR-8 ovarian
# MCF7 breast = test system: MCF7 breast
structure (smiles),measurement,setting,value
C=C(Br)CNC(=O)Nc1ccc(Cl)c(Cl)c1,TGI,MDA-MB-435,53.2 µM
same,TGI,HT29 colon,73.4 µM
same,TGI,SK-MEL-28 melanoma,> 100 µM
same,TGI,A498 renal,27.3 µM
same,TGI,MDA-N,> 100 µM
same,TGI,SF-539 CNS,39 µM
same,TGI,KM12 colon,34.4 µM
same,TGI,SF-268 CNS,91.9 µM
same,TGI,TK-10 renal,62.4 µM
same,TGI,UACC-62 melanoma,49 µM
same,TGI,ACHN renal,55 µM
same,TGI,IGROV1 ovarian,36.6 µM
same,TGI,HOP-92 NSCLC,41.2 µM
same,TGI,SW-620 colon,> 100 µM
same,TGI,NCI-H460 lung,> 100 µM
same,TGI,EKVX NSCLC,78.4 µM
same,TGI,OVCAR-4 ovarian,> 100 µM
same,TGI,NCI/ADR-RES ovarian,43.6 µM
same,TGI,SF-295 CNS,67.2 µM
same,TGI,HS 578T breast,54.3 µM
same,TGI,MALME-3M melanoma,48.6 µM
same,TGI,UO-31 renal,24.8 µM
same,TGI,NCI-H23 lung,39.6 µM
same,TGI,T-47D breast,> 100 µM
same,TGI,U251 CNS,66 µM
same,TGI,NCI-H226 lung,67.4 µM
same,TGI,HCT-116 colon,32.7 µM
same,TGI,PC-3 prostate,48 µM
same,TGI,SK-MEL-5 melanoma,27.1 µM
same,TGI,OVCAR-3 ovarian,38.8 µM
same,TGI,HCC-2998 colon,44.7 µM
same,TGI,DU-145 prostate,89.5 µM
same,TGI,A549 NSCLC,66 µM
same,TGI,CAKI-1 renal,54.2 µM
same,TGI,MOLT-4 leukemia,73.9 µM
same,TGI,K-562 leukemia,90.5 µM
same,TGI,MDA-MB-231 breast,32.9 µM
same,TGI,RXF 393 renal,40 µM
same,TGI,M14 melanoma,77.5 µM
same,TGI,SR leukemia,62.9 µM
same,TGI,LOX IMVI melanoma,43.6 µM
same,TGI,RPMI-8226 leukemia,50.7 µM
same,TGI,HOP-62 NSCLC,48.1 µM
same,TGI,SN12C renal,82.7 µM
same,TGI,SK-OV-3 ovarian,77 µM
same,TGI,HL-60(TB) leukemia,38.3 µM
same,TGI,SK-MEL-2 melanoma,32.8 µM
same,TGI,OVCAR-5 ovarian,92.4 µM
same,TGI,COLO 205 colon,30.6 µM
same,TGI,NCI-H522 lung,57.4 µM
same,TGI,SNB-75 CNS,51.5 µM
same,TGI,SNB-19 CNS,73.5 µM
same,TGI,786-0 renal,36 µM
same,TGI,CCRF-CEM leukemia,45.1 µM
same,TGI,HCT-15 colon,> 100 µM
Cn1c(=O)c2[nH]c(CCNC(=O)c3ccccc3)nc2n(C)c1=O,TGI,MDA-MB-435,> 100 µM
same,TGI,HT29 colon,> 100 µM
same,TGI,SK-MEL-28 melanoma,> 100 µM
same,TGI,A498 renal,> 100 µM
same,TGI,UACC-257 melanoma,> 100 µM
same,TGI,MDA-N,> 100 µM
same,TGI,KM12 colon,> 100 µM
same,TGI,SF-268 CNS,> 100 µM
same,TGI,TK-10 renal,> 100 µM
same,TGI,UACC-62 melanoma,> 100 µM
same,TGI,BT-549 breast,> 100 µM
same,TGI,ACHN renal,> 100 µM
same,TGI,IGROV1 ovarian,> 100 µM
same,TGI,HOP-92 NSCLC,> 100 µM
same,TGI,SW-620 colon,> 100 µM
same,TGI,NCI-H460 lung,> 100 µM
same,TGI,EKVX NSCLC,> 100 µM
same,TGI,OVCAR-4 ovarian,> 100 µM
same,TGI,NCI/ADR-RES ovarian,> 100 µM
same,TGI,SF-295 CNS,> 100 µM
same,TGI,HS 578T breast,> 100 µM
same,TGI,MALME-3M melanoma,> 100 µM
same,TGI,UO-31 renal,> 100 µM
same,TGI,NCI-H23 lung,> 100 µM
same,TGI,T-47D breast,> 100 µM
same,TGI,U251 CNS,> 100 µM
same,TGI,NCI-H226 lung,> 100 µM
same,TGI,OVCAR-8 ovarian,> 100 µM
same,TGI,HCT-116 colon,> 100 µM
same,TGI,PC-3 prostate,> 100 µM
same,TGI,SK-MEL-5 melanoma,> 100 µM
same,TGI,OVCAR-3 ovarian,> 100 µM
same,TGI,HCC-2998 colon,> 100 µM
same,TGI,DU-145 prostate,> 100 µM
same,TGI,A549 NSCLC,> 100 µM
same,TGI,CAKI-1 renal,> 100 µM
same,TGI,MOLT-4 leukemia,> 100 µM
same,TGI,K-562 leukemia,> 100 µM
same,TGI,MDA-MB-231 breast,> 100 µM
same,TGI,RXF 393 renal,> 100 µM
same,TGI,M14 melanoma,> 100 µM
same,TGI,SR leukemia,> 100 µM
same,TGI,LOX IMVI melanoma,> 100 µM
same,TGI,HOP-62 NSCLC,> 100 µM
same,TGI,SN12C renal,> 100 µM
same,TGI,SK-MEL-2 melanoma,> 100 µM
same,TGI,OVCAR-5 ovarian,> 100 µM
same,TGI,NCI-H522 lung,> 100 µM
same,TGI,SNB-75 CNS,> 100 µM
same,TGI,SNB-19 CNS,> 100 µM
same,TGI,786-0 renal,> 100 µM
same,TGI,CCRF-CEM leukemia,> 100 µM
same,TGI,HCT-15 colon,> 100 µM
Cc1n[nH]c(=O)n1N1C(=O)CCCC1=O,TGI,MDA-MB-435,> 100 µM
same,TGI,HT29 colon,> 100 µM
same,TGI,A498 renal,> 100 µM
same,TGI,UACC-257 melanoma,> 100 µM
same,TGI,MDA-N,> 100 µM
same,TGI,SF-539 CNS,> 100 µM
same,TGI,SF-268 CNS,> 100 µM
same,TGI,MCF7 breast,> 100 µM
same,TGI,TK-10 renal,> 100 µM
same,TGI,UACC-62 melanoma,> 100 µM
same,TGI,BT-549 breast,> 100 µM
same,TGI,IGROV1 ovarian,> 100 µM
same,TGI,EKVX NSCLC,> 100 µM
same,TGI,NCI/ADR-RES ovarian,> 100 µM
same,TGI,SF-295 CNS,> 100 µM
same,TGI,HS 578T breast,> 100 µM
same,TGI,MALME-3M melanoma,> 100 µM
same,TGI,NCI-H23 lung,> 100 µM
same,TGI,T-47D breast,> 100 µM
same,TGI,U251 CNS,> 100 µM
same,TGI,NCI-H226 lung,> 100 µM
same,TGI,OVCAR-8 ovarian,> 100 µM
same,TGI,HCT-116 colon,> 100 µM
same,TGI,PC-3 prostate,> 100 µM
same,TGI,SK-MEL-5 melanoma,> 100 µM
same,TGI,OVCAR-3 ovarian,> 100 µM
same,TGI,HCC-2998 colon,> 100 µM
same,TGI,DU-145 prostate,> 100 µM
same,TGI,A549 NSCLC,> 100 µM
same,TGI,CAKI-1 renal,> 100 µM
same,TGI,MOLT-4 leukemia,62.8 µM
same,TGI,K-562 leukemia,> 100 µM
same,TGI,MDA-MB-231 breast,> 100 µM
same,TGI,RXF 393 renal,> 100 µM
same,TGI,M14 melanoma,> 100 µM
same,TGI,HOP-62 NSCLC,> 100 µM
same,TGI,SN12C renal,> 100 µM
same,TGI,SK-OV-3 ovarian,> 100 µM
same,TGI,SK-MEL-2 melanoma,> 100 µM
same,TGI,OVCAR-5 ovarian,> 100 µM
same,TGI,COLO 205 colon,> 100 µM
same,TGI,NCI-H522 lung,> 100 µM
same,TGI,SNB-75 CNS,> 100 µM
same,TGI,786-0 renal,> 100 µM
same,TGI,CCRF-CEM leukemia,> 100 µM
CC1CC(C)C(C#N)N(C)c2ccccc21 (configuration not stated),TGI,MDA-MB-435,> 100 µM
same,TGI,HT29 colon,> 100 µM
same,TGI,SK-MEL-28 melanoma,> 100 µM
same,TGI,A498 renal,> 100 µM
same,TGI,UACC-257 melanoma,> 100 µM
same,TGI,MDA-N,> 100 µM
same,TGI,SF-539 CNS,> 100 µM
same,TGI,KM12 colon,> 100 µM
same,TGI,SF-268 CNS,> 100 µM
same,TGI,MCF7 breast,> 100 µM
same,TGI,TK-10 renal,> 100 µM
same,TGI,UACC-62 melanoma,> 100 µM
same,TGI,ACHN renal,> 100 µM
same,TGI,IGROV1 ovarian,> 100 µM
same,TGI,SW-620 colon,> 100 µM
same,TGI,NCI-H460 lung,> 100 µM
same,TGI,EKVX NSCLC,> 100 µM
same,TGI,OVCAR-4 ovarian,> 100 µM
same,TGI,NCI/ADR-RES ovarian,> 100 µM
same,TGI,SF-295 CNS,> 100 µM
same,TGI,HS 578T breast,> 100 µM
same,TGI,MALME-3M melanoma,> 100 µM
same,TGI,UO-31 renal,> 100 µM
same,TGI,NCI-H23 lung,> 100 µM
same,TGI,T-47D breast,> 100 µM
same,TGI,NCI-H226 lung,> 100 µM
same,TGI,OVCAR-8 ovarian,> 100 µM
same,TGI,HCT-116 colon,> 100 µM
same,TGI,PC-3 prostate,> 100 µM
same,TGI,SK-MEL-5 melanoma,> 100 µM
same,TGI,OVCAR-3 ovarian,> 100 µM
same,TGI,HCC-2998 colon,> 100 µM
same,TGI,DU-145 prostate,> 100 µM
same,TGI,A549 NSCLC,> 100 µM
same,TGI,CAKI-1 renal,> 100 µM
same,TGI,MOLT-4 leukemia,> 100 µM
same,TGI,K-562 leukemia,> 100 µM
same,TGI,MDA-MB-231 breast,> 100 µM
same,TGI,RXF 393 renal,> 100 µM
same,TGI,M14 melanoma,> 100 µM
same,TGI,SR leukemia,92.2 µM
same,TGI,RPMI-8226 leukemia,> 100 µM
same,TGI,HOP-62 NSCLC,> 100 µM
same,TGI,SN12C renal,> 100 µM
same,TGI,SK-OV-3 ovarian,> 100 µM
same,TGI,HL-60(TB) leukemia,64.9 µM
same,TGI,SK-MEL-2 melanoma,> 100 µM
same,TGI,OVCAR-5 ovarian,> 100 µM
same,TGI,COLO 205 colon,> 100 µM
same,TGI,SNB-75 CNS,> 100 µM
same,TGI,SNB-19 CNS,> 100 µM
same,TGI,786-0 renal,> 100 µM
same,TGI,CCRF-CEM leukemia,> 100 µM
same,TGI,HCT-15 colon,> 100 µM
